# Laboratory results: patent US20240190824A1, “INHIBITORS OF TREK (TWIK RELATED K+ CHANNELS) CHANNEL FUNCTION” (ONO PHARMACEUTICAL CO., LTD., priority 2019, published 2024)
# Biological target: human TREK-1 (Homo sapiens (Human), UniProt O95069)
# Assay: TREK-1 Thallium (Tl+) flux assay
# Format: cell-based
# Conditions: CHO-K1 cells stably expressing human TREK-1
# human TREK-1, sequence (O95069 whole entry): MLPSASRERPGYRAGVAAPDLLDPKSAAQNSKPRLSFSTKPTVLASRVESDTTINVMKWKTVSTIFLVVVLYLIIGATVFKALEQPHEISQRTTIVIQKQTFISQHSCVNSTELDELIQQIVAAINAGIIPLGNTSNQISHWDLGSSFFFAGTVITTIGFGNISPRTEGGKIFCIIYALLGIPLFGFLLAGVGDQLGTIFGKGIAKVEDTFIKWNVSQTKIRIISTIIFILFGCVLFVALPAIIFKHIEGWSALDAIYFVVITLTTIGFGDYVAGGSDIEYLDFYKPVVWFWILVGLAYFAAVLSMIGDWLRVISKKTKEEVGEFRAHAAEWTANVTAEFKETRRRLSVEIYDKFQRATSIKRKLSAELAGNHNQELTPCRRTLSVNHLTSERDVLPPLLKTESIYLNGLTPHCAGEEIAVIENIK
row,Compound,IC50 [nM]
1,"Cc1ccc(NC(=O)OC(C)(C)C)cc1C(=O)Nc1ncc(C#Cc2ccccc2)cc1C [Compound 46, tert-butyl N-[4-methyl-3-[[3-methyl-5-(2-phenylethynyl)-2-pyridyl]carbamoyl]phenyl]carbamate]",870
2,"Cc1cc(C#Cc2ccccc2)cnc1NC(=O)c1cc(-c2nc(C3CC3)no2)ccc1Cl [Compound 57, 2-chloro-5-(3-cyclopropyl-1,2,4-oxadiazol-5-yl)-N-[3-methyl-5-(2-phenylethynyl)-2-pyridyl]benzamide]",130
3,"Cc1cc(C#Cc2ccccc2)cnc1NC(=O)c1cc(NC(=O)[C@@H]2C[C@H]2C)ccc1Cl [Compound 36, 2-chloro-5-[[(1R,2R)-2-methylcyclopropanecarbonyl]amino]-N-[3-methyl-5-(2-phenylethynyl)-2-pyridyl]benzamide]",420
4,"Cc1cc(OCc2ccccc2)cnc1NC(=O)c1cc(NC(=O)OC(C)(C)C)ccc1Cl [Compound 87, tert-butyl N-[3-[(5-benzyloxy-3-methyl-2-pyridyl)carbamoyl]-4-chloro-phenyl]carbamate]",560
5,"Cc1cc(OCc2ccccc2)ccc1NC(=O)c1cc(NC(=O)OC(C)(C)C)ccc1Cl [Compound 25, tert-butyl (3-((4-(benzyloxy)-2-methylphenyl)carbamoyl)-4-chlorophenyl)carbamate]",460
6,"Cc1nc(C)c(-c2ccc(Cl)c(C(=O)Nc3ncc(C#Cc4ccccc4)cc3F)c2)s1 [Compound 67, 2-chloro-5-(2,4-dimethylthiazol-5-yl)-N-[3-fluoro-5-(2-phenylethynyl)-2-pyridyl]benzamide]",210
7,"O=C(Nc1ncc(C#Cc2ccccc2)cc1F)c1cc(NC(=O)C2COCCO2)ccc1Cl (centres unmarked) [Compound 10, N-[4-chloro-3-[[3-fluoro-5-(2-phenylethynyl)-2-pyridyl]carbamoyl]phenyl]-1,4-dioxane-2-carboxamide]",200
8,"O=C(Nc1ncc(C#Cc2ccccc2)cc1F)c1cc(OC[C@H]2COCCO2)ccc1Cl [Compound 80, 2-chloro-5-[[(2R)-1,4-dioxan-2-yl]methoxy]-N-[3-fluoro-5-(2-phenylethynyl)-2-pyridyl]benzamide]",60
9,"Cc1cc(C#Cc2cccc(F)c2)cnc1NC(=O)c1cc(NC(=O)C2COCCO2)ccc1Cl (centres unmarked) [Compound 13, N-[4-chloro-3-[[5-[2-(3-fluorophenyl)ethynyl]-3-methyl-2-pyridyl]carbamoyl]phenyl]-1,4-dioxane-2-carboxamide]",280
10,"O=C(Nc1ncc(C#Cc2ccccc2)cc1F)c1cc(-c2cnn(C3COC3)c2)ccc1Cl [Compound 56, 2-chloro-N-[3-fluoro-5-(2-phenylethynyl)-2-pyridyl]-5-[1-(oxetan-3-yl)pyrazol-4-yl]benzamide]",110
11,"Cc1cc(C#Cc2ccccc2)cnc1NC(=O)c1cc(C#N)ccc1Cl [Compound 53, 2-chloro-5-cyano-N-(3-methyl-5-(phenylethynyl)pyridin-2-yl)benzamide]",810
